US20060211668A1, “Use of ciclesonide for the treatment of inflammatory bowel diseases” (ALTANA PHARMA AG, priority 2003, published 2006)

Experiments:
[1] = test system: TNBS-induced Colits in the rat; assay: TNBS-induced colitis in the rat, intrarectal administration; assay type: in vivo; conditions: for max Colon width: lowest dose that impacts the parameter to a relevant extent (inhibition of the TNBS-induced increase): TNBS 30 mg/kg rectally, compound intrarectal twice daily days -1 to +2, sacrificed day 2; for Thymus weight: lowest dose that impacts the parameter to a relevant extent (amplification of the TNBS-induced decrease) / Weight of adrenal glands: lowest dose that impacts the parameter to a relevant extent (inhibition of the TNBS-induced increase): TNBS colitis, intrarectal twice daily, side effect parameter
Method: As an animal model of Inflammatory Bowel Disease, the TNBS-induced Colits in the rat had been used.
48 h fasted rats (220-250 g b.w.) received rectally 0,9 ml of a solution consisting of 30% ethanol, 30 mg/kg TNBS (Trinitrobenzoesulfonic acid) in an oral distance of 8-9 cm from the anus. Compound administration days −1 to +2. Animals were sacrified on day 2. For intrarectal administration the compounds were solved in 1% ethanol, 10% Propyleneglycol and 20% Cyclodextrin. The used range of concentrations was identical for all compounds. Intrarectal administration schedule: twice daily. Compounds used: Ciclesonide and for comparison, Budesonide and Dexamethasone.
As parameters for the estimation of the pharmacological effects of the compounds, max. colon width had been used. As for the estimation of potential side effects, the weights of thymus and adrenal glands have been registrated.
The efficacy of a treatment was calculated on the reference of controls that received either no TNBS or TNBS rectally, establishing the range of 100 to 0% inhibition, respectively, in the drug screening.

[2] = human; cited from earlier work

Row | SMILES | max Colon width: lowest dose that impacts the parameter to a relevant extent (inhibition of the TNBS-induced increase) [1] | Thymus weight: lowest dose that impacts the parameter to a relevant extent (amplification of the TNBS-induced decrease) ([1]; highest assessed dose 6.9) | Weight of adrenal glands: lowest dose that impacts the parameter to a relevant extent (inhibition of the TNBS-induced increase) ([1]; highest assessed dose 6.9) | Weight of adrenal glands: lowest dose that impacts the parameter to a relevant extent (inhibition of the TNBS-induced increase) ([1]; highest assessed dose 6.9, listed as budenoside) | Thymus weight: lowest dose that impacts the parameter to a relevant extent (amplification of the TNBS-induced decrease) ([1]; highest assessed dose 6.9, listed as ciclesonide) [μmol/animal] | Oral bioavailability [2]
1 | CCCC1O[C@@H]2C[C@H]3[C@@H]4CCC5=CC(=O)C=C[C@]5(C)[C@H]4[C@@H](O)C[C@]3(C)[C@]2(C(=O)CO)O1 (stereo partly shown) [Budesonide] | 2.3-6.9 μmol/animal | 2.3 μmol/animal | n.e. @ 6.9 μmol/animal | does not reverse |  | 
2 | CC(C)C(=O)OCC(=O)[C@@]12O[C@H](C3CCCCC3)O[C@@H]1C[C@H]1[C@@H]3CCC4=CC(=O)C=C[C@]4(C)[C@H]3[C@@H](O)C[C@@]12C [Ciclesonide, [11β,16α(R)]-16,17-[(cyclohexylmethylene)bis(oxy)]-11-hydroxy-21-(2-methyl-1-oxopropoxy)pregna-1,4-diene-3,20-dione] | 2.3 μmol/animal | n.e. @ 6.9 μmol/animal | 2.3 μmol/animal |  | > 6.9 | below 1%
3 | C[C@@H]1C[C@H]2[C@@H]3CCC4=CC(=O)C=C[C@]4(C)[C@@]3(F)[C@@H](O)C[C@]2(C)[C@@]1(O)C(=O)CO [Dexamethasone] | 0.69 μmol/animal |  |  |  |  | 
